Results taken from ChEMBL document CHEMBL5576063, “Design, concise synthesis and evaluation of novel amide-based combretastatin A-4 analogues as potent tubulin inhibitors” (Bioorg Med Chem Lett, 2024).
One block for each compound: values may come before it. Activity calls are given as the source filed them. The calls are words filed in the database; no cut-off is given here.

Legend:
A549 [1] = assay: Antiproliferative activity against human A549 cells assessed as inhibition of cell growth by MTT assay; assay type: functional, cell-based
HCT-116 = assay: Antiproliferative activity against human HCT-116 cells assessed as inhibition of cell growth by MTT assay; assay type: functional, cell-based
HT-29 = assay: Antiproliferative activity against human HT-29 cells assessed as inhibition of cell growth by MTT assay; assay type: functional, cell-based
HeLa = assay: Antiproliferative activity against human HeLa cells assessed as inhibition of cell growth by MTT assay; assay type: functional, cell-based
[2] = Antiproliferative activity against HEK293 cells assessed as inhibition of cell growth by MTT assay; assay type: toxicity, cell-based; conditions: human
Tubulin (Homo sapiens) [3] = biological target: T1, Tubulin (Homo sapiens) (UniProt P68371+Q9H4B7+P0DPH7+P68366+Q13509+Q71U36+P04350+Q3ZCM7+P07437+P68363+Q9BQE3+Q6PEY2+Q13885+Q9BVA1+Q9BUF5); assay: Inhibition of tubulin polymerization (unknown origin) at 10 uM measured upto 30 mins by spectrophotometry based analysis relative to control; assay type: protein-complex assay
Tubulin (Homo sapiens) [4] = biological target: T1, Tubulin (Homo sapiens); assay: Inhibition of tubulin polymerization (unknown origin) at 10 uM measured upto 30 mins by spectrophotometry analysis; assay type: protein-complex assay
Tubulin = assay: Inhibition of tubulin polymerization (unknown origin) measured upto 30 mins by spectrophotometry based analysis; assay type: protein-complex assay, Homo sapiens
A549 [5] = assay: Induction of cell cycle arrest in human A549 cells assessed as accumulation of cells at G0/G1 phase at 1.2 uM measured after 24 hrs by PI staining based flow cytometry analysis (reference value: 55.88%); assay type: functional
A549 [6] = assay: Induction of cell cycle arrest in human A549 cells assessed as accumulation of cells at G0/G1 phase at 2.4 uM measured after 24 hrs by PI staining based flow cytometry analysis (reference value: 55.88%); assay type: functional
A549 [7] = assay: Induction of cell cycle arrest in human A549 cells assessed as accumulation of cells at G0/G1 phase at 4.8 uM measured after 24 hrs by PI staining based flow cytometry analysis (reference value: 55.88%); assay type: functional
A549 [8] = assay: Induction of cell cycle arrest in human A549 cells assessed as accumulation of cells at G2/M phase at 1.2 uM measured after 24 hrs by PI staining based flow cytometry analysis (reference value: 21.00%); assay type: functional
A549 [9] = assay: Induction of cell cycle arrest in human A549 cells assessed as accumulation of cells at G2/M phase at 2.4 uM measured after 24 hrs by PI staining based flow cytometry analysis (reference value: 21.00%); assay type: functional
A549 [10] = assay: Induction of cell cycle arrest in human A549 cells assessed as accumulation of cells at G2/M phase at 4.8 uM measured after 24 hrs by PI staining based flow cytometry analysis (reference value: 21.00%); assay type: functional
A549 [11] = assay: Induction of cell cycle arrest in human A549 cells assessed as accumulation of cells at S phase at 1.2 uM measured after 24 hrs by PI staining based flow cytometry analysis (reference value: 23.17%); assay type: functional
A549 [12] = assay: Induction of cell cycle arrest in human A549 cells assessed as accumulation of cells at S phase at 2.4 uM measured after 24 hrs by PI staining based flow cytometry analysis (reference value: 23.17%); assay type: functional
A549 [13] = assay: Induction of cell cycle arrest in human A549 cells assessed as accumulation of cells at S phase at 4.8 uM measured after 24 hrs by PI staining based flow cytometry analysis (reference value: 23.17%); assay type: functional
A549 [14] = assay: Induction of apoptosis in human A549 cells assessed as viable cells at 1.2 uM measured after 24 hrs by annexin-V/PI staining based flow cytometry analysis (reference value: 97.4%); assay type: functional; conditions: read-out: Activity
A549 [15] = assay: Induction of apoptosis in human A549 cells assessed as viable cells at 2.4 uM measured after 24 hrs by annexin-V/PI staining based flow cytometry analysis (reference value: 97.4%); assay type: functional; conditions: read-out: Activity
A549 [16] = assay: Induction of apoptosis in human A549 cells assessed as viable cells at 4.8 uM measured after 24 hrs by annexin-V/PI staining based flow cytometry analysis (reference value: 97.4%); assay type: functional; conditions: read-out: Activity
A549 [17] = assay: Induction of apoptosis in human A549 cells assessed as early apoptotic cells at 1.2 uM measured after 24 hrs by annexin-V/PI staining based flow cytometry analysis (reference value: 1.87%); assay type: functional
A549 [18] = assay: Induction of apoptosis in human A549 cells assessed as early apoptotic cells at 2.4 uM measured after 24 hrs by annexin-V/PI staining based flow cytometry analysis (reference value: 1.87%); assay type: functional
A549 [19] = assay: Induction of apoptosis in human A549 cells assessed as early apoptotic cells at 4.8 uM measured after 24 hrs by annexin-V/PI staining based flow cytometry analysis (reference value: 1.87%); assay type: functional
A549 [20] = assay: Induction of apoptosis in human A549 cells assessed as late apoptotic cells at 1.2 uM measured after 24 hrs by annexin-V/PI staining based flow cytometry analysis (reference value: 0.25%); assay type: functional
A549 [21] = assay: Induction of apoptosis in human A549 cells assessed as late apoptotic cells at 2.4 uM measured after 24 hrs by annexin-V/PI staining based flow cytometry analysis (reference value: 0.25%); assay type: functional
A549 [22] = assay: Induction of apoptosis in human A549 cells assessed as late apoptotic cells at 4.8 uM measured after 24 hrs by annexin-V/PI staining based flow cytometry analysis (reference value: 0.25%); assay type: functional
A549 [23] = assay: Induction of apoptosis in human A549 cells assessed as necrotic cells at 1.2 uM measured after 24 hrs by annexin-V/PI staining based flow cytometry analysis (reference value: 0.48%); assay type: functional
A549 [24] = assay: Induction of apoptosis in human A549 cells assessed as necrotic cells at 2.4 uM measured after 24 hrs by annexin-V/PI staining based flow cytometry analysis (reference value: 0.48%); assay type: functional
A549 [25] = assay: Induction of apoptosis in human A549 cells assessed as necrotic cells at 4.8 uM measured after 24 hrs by annexin-V/PI staining based flow cytometry analysis (reference value: 0.48%); assay type: functional
A549 [26] = assay: Induction of cell cycle arrest in human A549 cells assessed as accumulation of cells at G2/M phase measured after 24 hrs by PI staining based flow cytometry analysis; assay type: functional; conditions: dose 1.2-4.8 µM
A549 [27] = assay: Induction of apoptosis in human A549 cells assessed measured after 24 hrs by annexin-V/PI staining based flow cytometry analysis; assay type: functional, cell-based; conditions: dose 1.2-4.8 µM
Tubulin (Homo sapiens) [28] = biological target: T1, Tubulin (Homo sapiens); assay: Inhibition of tubulin polymerization (unknown origin) at 6 uM measured upto 30 mins by spectrophotometry analysis; assay type: protein-complex assay

IC50 (A549 [1]): 3.01 µM
Compound: COc1ccc(NC(=O)/C(=C/c2ccc(OC)c(OC(C)=O)c2)c2cc(OC)c(OC)c(OC)c2)cc1

IC50 (A549 [1]): > 50 µM
Compound: COc1ccc(/C=C(/C(=O)NCc2ccccc2)c2cc(OC)c(OC)c(OC)c2)cc1O

IC50 (A549 [1]): 1.08 µM
IC50 (HCT-116): 28.6 µM
IC50 (HT-29): 18.1 µM
IC50 (HeLa): 23.4 µM
inhibition (Tubulin (Homo sapiens) [3]): 3%
Compound: COc1ccc(/C=C(/C(=O)Nc2ccc(C(C)C)cc2)c2cc(OC)c(OC)c(OC)c2)cc1OC(C)=O
IC50 [2]: > 100 µM

IC50 (A549 [1]): 45.7 µM
Compound: CCN1CCN(c2ccc(NC(=O)/C(=C/c3ccc(OC)c(O)c3)c3cc(OC)c(OC)c(OC)c3)cc2)CC1

IC50 (A549 [1]): 24.5 µM
Compound: COc1ccc(/C=C(/C(=O)Nc2ccc(C)cc2)c2cc(OC)c(OC)c(OC)c2)cc1O

IC50 (A549 [1]): > 50 µM
Compound: CCc1ccc(NC(=O)/C(=C/c2ccc(OC)c(O)c2)c2cc(OC)c(OC)c(OC)c2)cc1

IC50 (A549 [1]): > 50 µM
Compound: COc1ccc(/C=C(/C(=O)NC2CC2)c2cc(OC)c(OC)c(OC)c2)cc1O

IC50 (A549 [1]): > 50 µM
Compound: COc1ccc(/C=C(/C(=O)NC2CC2)c2cc(OC)c(OC)c(OC)c2)cc1OC(C)=O

IC50 (A549 [1]): 3.91 µM
Compound: COc1ccc(/C=C(/C(=O)Nc2ccccc2)c2cc(OC)c(OC)c(OC)c2)cc1OC(C)=O

IC50 (A549 [1]): 3.99 µM
Compound: COc1ccc(/C=C(/C(=O)Nc2ccc(C)cc2)c2cc(OC)c(OC)c(OC)c2)cc1OC(C)=O

IC50 (A549 [1]): > 50 µM
Compound: COc1ccc(/C=C(/C(=O)NC2CCCC2)c2cc(OC)c(OC)c(OC)c2)cc1OC(C)=O

IC50 (A549 [1]): 43.4 µM
Compound: COc1ccc(/C=C(/C(=O)Nc2ccc(C(C)C)cc2)c2cc(OC)c(OC)c(OC)c2)cc1O

IC50 (A549 [1]): 33.8 µM
Compound: COc1ccc(/C=C(/C(=O)NCc2ccccc2)c2cc(OC)c(OC)c(OC)c2)cc1OC(C)=O

IC50 (A549 [1]): > 50 µM
Compound: COc1ccc(/C=C(/C(=O)Nc2ccc(N3CCN(C)CC3)cc2)c2cc(OC)c(OC)c(OC)c2)cc1O

IC50 (A549 [1]): > 50 µM
Compound: COc1ccc(/C=C(/C(=O)Nc2ccc(N3CCN(C)CC3)cc2)c2cc(OC)c(OC)c(OC)c2)cc1OC(C)=O

inhibition (Tubulin (Homo sapiens) [4]): inactive
Compound: CC(=O)O[C@H]1C(=O)[C@@]2(C)[C@H]([C@H](OC(=O)c3ccccc3)[C@]3(O)C[C@H](OC(=O)[C@H](O)[C@@H](NC(=O)c4ccccc4)c4ccccc4)C(C)=C1C3(C)C)[C@]1(OC(C)=O)CO[C@@H]1C[C@@H]2O

IC50 (A549 [1]): 0.73 µM
IC50 (HCT-116): 5.49 µM
IC50 (HT-29): 4.71 µM
IC50 (HeLa): 9.79 µM
inhibition (Tubulin (Homo sapiens) [3]): 34%
Compound: COc1ccc(/C=C(/C(=O)Nc2cc(OC)c(OC)c(OC)c2)c2cc(OC)c(OC)c(OC)c2)cc1OC(C)=O
IC50 [2]: > 100 µM

IC50 (A549 [1]): > 50 µM
Compound: COc1ccc(NC(=O)/C(=C/c2ccc(OC)c(O)c2)c2cc(OC)c(OC)c(OC)c2)cc1

IC50 (A549 [1]): > 50 µM
Compound: COc1ccc(/C=C(/C(=O)Nc2ccc(Cl)cc2)c2cc(OC)c(OC)c(OC)c2)cc1O

IC50 (A549 [1]): 2.42 µM
IC50 (HCT-116): 6.28 µM
IC50 (HT-29): 5.33 µM
IC50 (HeLa): 10.3 µM
inhibition (Tubulin (Homo sapiens) [3]): 62%
IC50 (Tubulin): 6.9 µM
inhibition (Tubulin (Homo sapiens) [28]): Active
Compound: COc1ccc(/C=C(/C(=O)Nc2ccccc2)c2cc(OC)c(OC)c(OC)c2)cc1O
IC50 [2]: > 100 µM
Activity (A549 [5]): 53.47%
Activity (A549 [6]): 40.69%
Activity (A549 [7]): 53.73%
Activity (A549 [8]): 28.81%
Activity (A549 [9]): 46.63%
Activity (A549 [10]): 32.36%
Activity (A549 [11]): 22.72%
Activity (A549 [12]): 32.71%
Activity (A549 [13]): 13.9%
viability at 1.2 µM (A549 [14]): 96.4%
viability at 2.4 µM (A549 [15]): 93.1%
viability at 4.8 µM (A549 [16]): 86.9%
Activity (A549 [17]): 1.98%
Activity (A549 [18]): 1.87%
Activity (A549 [19]): 4.97%
Activity (A549 [20]): 1.35%
Activity (A549 [21]): 3.33%
Activity (A549 [22]): 5.15%
Activity (A549 [23]): 0.27%
Activity (A549 [24]): 1.65%
Activity (A549 [25]): 2.96%
Activity (A549 [26]): Dose-Dependent Effect
Activity (A549 [27]): Dose-Dependent Effect

IC50 (A549 [1]): 2.64 µM
IC50 (HCT-116): 20.5 µM
IC50 (HT-29): 30.2 µM
IC50 (HeLa): 17.3 µM
inhibition (Tubulin (Homo sapiens) [3]): 3%
Compound: COc1ccc(/C=C(/C(=O)Nc2ccc(Cl)cc2)c2cc(OC)c(OC)c(OC)c2)cc1OC(C)=O
IC50 [2]: > 100 µM

IC50 (A549 [1]): > 50 µM
Compound: COc1ccc(/C=C(/C(=O)Nc2cc(OC)c(OC)c(OC)c2)c2cc(OC)c(OC)c(OC)c2)cc1O

IC50 (A549 [1]): > 50 µM
Compound: COc1ccc(/C=C(/C(=O)NC2CCCC2)c2cc(OC)c(OC)c(OC)c2)cc1O

IC50 (A549 [1]): 3.53 µM
Compound: CCc1ccc(NC(=O)/C(=C/c2ccc(OC)c(OC(C)=O)c2)c2cc(OC)c(OC)c(OC)c2)cc1

Compound: COc1ccc(/C=C\c2cc(OC)c(OC)c(OC)c2)cc1O [COMBRETASTATIN A4]
IC50 (A549 [1]): 0.11 µM
IC50 (HCT-116): 4.77 µM
IC50 (HT-29): 1.65 µM
IC50 (HeLa): 0.08 µM
IC50 [2]: 48.1 µM

IC50 (A549 [1]): 4.85 µM
Compound: CCN1CCN(c2ccc(NC(=O)/C(=C/c3ccc(OC)c(OC(C)=O)c3)c3cc(OC)c(OC)c(OC)c3)cc2)CC1
